Data reported in PubChem BioAssay (NCI).
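Step 1: Grow cells in 96-well plates. Step 2: Expose to compound for 48 hours at 5 concentrations. Step 3: Interpolate endpoints linearly; if unreached, use highest concentration. TGI: total growth inhibition.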

What was measured:
Assay in all cases: NCI tumour cell line growth inhibition, 48 h
[1] = test system: UO-31 renal
[2] = test system: HOP-92 NSCLC
[3] = test system: SK-MEL-5 melanoma
[4] = test system: NCI-H460 lung
[5] = test system: NCI-H522 lung
[6] = test system: HT29 colon
[7] = test system: EKVX NSCLC
[8] = test system: A549 NSCLC
[9] = test system: NCI/ADR-RES ovarian
[10] = test system: K-562 leukemia
[11] = test system: RXF 393 renal
[12] = test system: U251 CNS
[13] = test system: MOLT-4 leukemia
[14] = test system: NCI-H23 lung
[15] = test system: T-47D breast
[16] = test system: A498 renal
[17] = test system: SNB-19 CNS
[18] = test system: UACC-257 melanoma
[19] = test system: MCF7 breast
[20] = test system: MDA-MB-231 breast
[21] = test system: MDA-MB-435
[22] = test system: BT-549 breast
[23] = test system: MALME-3M melanoma
[24] = test system: NCI-H226 lung
[25] = test system: M14 melanoma
[26] = test system: SF-539 CNS
[27] = test system: SK-MEL-2 melanoma
[28] = test system: OVCAR-4 ovarian
[29] = test system: TK-10 renal
[30] = test system: ACHN renal
[31] = test system: IGROV1 ovarian
[32] = test system: LOX IMVI melanoma
[33] = test system: PC-3 prostate
[34] = test system: SW-620 colon
[35] = test system: SN12C renal
[36] = test system: SNB-75 CNS
[37] = test system: 786-0 renal
[38] = test system: OVCAR-5 ovarian
[39] = test system: COLO 205 colon
[40] = test system: SR leukemia
[41] = test system: HCT-116 colon
[42] = test system: KM12 colon
[43] = test system: CCRF-CEM leukemia
[44] = test system: OVCAR-8 ovarian
[45] = test system: UACC-62 melanoma
[46] = test system: SK-MEL-28 melanoma
[47] = test system: MDA-N
[48] = test system: SF-268 CNS
[49] = test system: HL-60(TB) leukemia
[50] = test system: HCC-2998 colon
[51] = test system: HS 578T breast
[52] = test system: HCT-15 colon
[53] = test system: RPMI-8226 leukemia
[54] = test system: CAKI-1 renal
[55] = test system: SF-295 CNS
[56] = test system: HOP-62 NSCLC
[57] = test system: DU-145 prostate
[58] = test system: SK-OV-3 ovarian
[59] = test system: OVCAR-3 ovarian

Q: With `O=C1C(Cl)C2(CC(/C=C/c3ccccc3O)=NN2c2cccc(S(=O)(=O)O)c2)N1c1nc2ccccc2s1` (centres undefined) as the molecule, how does the TGI [1] read?
A: 26.2 µM

Q: And the TGI [2]?
A: 37 µM

Q: And the TGI [3]?
A: 26.1 µM

Q: And the TGI [4]?
A: 34.6 µM

Q: And the TGI [5]?
A: 14.6 µM

Q: What about the TGI [6] of the same molecule?
A: 39 µM

Q: What about the TGI [7] of the same molecule?
A: 45.8 µM

Q: And the TGI [8]?
A: 82.5 µM

Q: What about the TGI [9] of the same molecule?
A: > 100 µM

Q: What about the TGI [10] of the same molecule?
A: 86.1 µM

Q: And the TGI [11]?
A: > 100 µM

Q: What about the TGI [12] of the same molecule?
A: 46.9 µM

Q: What about the TGI [13] of the same molecule?
A: 47.7 µM

Q: What about the TGI [14] of the same molecule?
A: 33.2 µM

Q: And the TGI [15]?
A: 37.4 µM

Q: And the TGI [16]?
A: 50.5 µM

Q: What about the TGI [17] of the same molecule?
A: > 100 µM

Q: And the TGI [18]?
A: 42 µM

Q: And the TGI [19]?
A: 31.8 µM

Q: And the TGI [20]?
A: 74.6 µM

Q: And the TGI [21]?
A: 31.1 µM

Q: What about the TGI [22] of the same molecule?
A: 34.9 µM

Q: And the TGI [23]?
A: 27.1 µM

Q: What about the TGI [24] of the same molecule?
A: 51.2 µM

Q: What about the TGI [25] of the same molecule?
A: 37.8 µM

Q: What about the TGI [26] of the same molecule?
A: 36.5 µM

Q: What about the TGI [27] of the same molecule?
A: 40.8 µM

Q: And the TGI [28]?
A: 27.4 µM

Q: What about the TGI [29] of the same molecule?
A: 26 µM

Q: What about the TGI [30] of the same molecule?
A: 53 µM

Q: And the TGI [31]?
A: 31.2 µM

Q: What about the TGI [32] of the same molecule?
A: 24.7 µM

Q: And the TGI [33]?
A: > 100 µM

Q: What about the TGI [34] of the same molecule?
A: 42.9 µM

Q: What about the TGI [35] of the same molecule?
A: 27.8 µM

Q: And the TGI [36]?
A: > 100 µM

Q: What about the TGI [37] of the same molecule?
A: 30 µM

Q: And the TGI [38]?
A: 45.8 µM

Q: What about the TGI [39] of the same molecule?
A: 38.7 µM

Q: And the TGI [40]?
A: 58 µM

Q: And the TGI [41]?
A: 31 µM

Q: What about the TGI [42] of the same molecule?
A: 30.3 µM

Q: What about the TGI [43] of the same molecule?
A: 34.7 µM

Q: What about the TGI [44] of the same molecule?
A: 63.9 µM

Q: And the TGI [45]?
A: 30.9 µM

Q: And the TGI [46]?
A: 71.2 µM

Q: What about the TGI [47] of the same molecule?
A: 47 µM

Q: And the TGI [48]?
A: 43.4 µM

Q: And the TGI [49]?
A: 14.5 µM

Q: What about the TGI [50] of the same molecule?
A: 29 µM

Q: And the TGI [51]?
A: > 100 µM

Q: What about the TGI [52] of the same molecule?
A: 44.6 µM

Q: And the TGI [53]?
A: 35.5 µM

Q: Which results are given for `OC(c1cc2ccccc2[nH]1)C1(c2cccnc2)SCCCS1` (centres undefined)?
A: TGI [1]: > 100 µM; TGI [2]: > 100 µM; TGI [3]: > 100 µM; TGI [54]: > 100 µM; TGI [4]: > 100 µM; TGI [5]: > 100 µM; TGI [6]: > 100 µM; TGI [7]: > 100 µM; TGI [55]: > 100 µM; TGI [8]: > 100 µM; TGI [9]: > 100 µM; TGI [10]: > 100 µM; TGI [11]: > 100 µM; TGI [12]: > 100 µM; TGI [13]: > 100 µM; TGI [14]: > 100 µM; TGI [15]: > 100 µM; TGI [16]: > 100 µM; TGI [17]: > 100 µM; TGI [18]: > 100 µM; TGI [19]: > 100 µM; TGI [20]: > 100 µM; TGI [21]: > 100 µM; TGI [22]: > 100 µM; TGI [23]: > 100 µM; TGI [24]: > 100 µM; TGI [25]: > 100 µM; TGI [56]: > 100 µM; TGI [27]: > 100 µM; TGI [28]: > 100 µM; TGI [29]: > 100 µM; TGI [30]: > 100 µM; TGI [31]: > 100 µM; TGI [32]: > 100 µM; TGI [33]: > 100 µM; TGI [34]: > 100 µM; TGI [35]: > 100 µM; TGI [36]: > 100 µM; TGI [37]: > 100 µM; TGI [57]: > 100 µM; TGI [38]: > 100 µM; TGI [39]: > 100 µM; TGI [40]: > 100 µM; TGI [41]: > 100 µM; TGI [42]: 82 µM; TGI [44]: > 100 µM; TGI [45]: > 100 µM; TGI [46]: > 100 µM; TGI [47]: > 100 µM; TGI [48]: > 100 µM; TGI [49]: > 100 µM; TGI [58]: > 100 µM; TGI [51]: > 100 µM; TGI [52]: > 100 µM

Q: Which results are given for `NNC1=N/C(=C\c2ccco2)C(=O)N1`?
A: TGI [1]: > 100 µM; TGI [3]: > 100 µM; TGI [54]: > 100 µM; TGI [5]: > 100 µM; TGI [6]: > 100 µM; TGI [7]: > 100 µM; TGI [55]: > 100 µM; TGI [8]: > 100 µM; TGI [9]: > 100 µM; TGI [10]: > 100 µM; TGI [12]: > 100 µM; TGI [13]: > 100 µM; TGI [14]: > 100 µM; TGI [15]: > 100 µM; TGI [16]: > 100 µM; TGI [17]: > 100 µM; TGI [18]: > 100 µM; TGI [19]: > 100 µM; TGI [20]: > 100 µM; TGI [21]: > 100 µM; TGI [22]: > 100 µM; TGI [23]: > 100 µM; TGI [24]: > 100 µM; TGI [25]: > 100 µM; TGI [56]: > 100 µM; TGI [26]: > 100 µM; TGI [27]: > 100 µM; TGI [28]: > 100 µM; TGI [29]: > 100 µM; TGI [30]: > 100 µM; TGI [31]: > 100 µM; TGI [32]: > 100 µM; TGI [33]: > 100 µM; TGI [34]: > 100 µM; TGI [35]: > 100 µM; TGI [36]: > 100 µM; TGI [37]: > 100 µM; TGI [38]: > 100 µM; TGI [39]: > 100 µM; TGI [40]: > 100 µM; TGI [41]: > 100 µM; TGI [42]: > 100 µM; TGI [44]: > 100 µM; TGI [45]: > 100 µM; TGI [46]: > 100 µM; TGI [59]: > 100 µM; TGI [47]: > 100 µM; TGI [49]: > 100 µM; TGI [50]: > 100 µM; TGI [58]: > 100 µM; TGI [52]: > 100 µM; TGI [53]: > 100 µM

Q: What does the source list for `CCC/C(Cl)=N\OC(=O)Nc1cccc(C(F)(F)F)c1`?
A: TGI [1]: 33.9 µM; TGI [3]: 28.9 µM; TGI [54]: 33.1 µM; TGI [4]: 35.8 µM; TGI [5]: 3.42 µM; TGI [6]: 50.3 µM; TGI [7]: 31.4 µM; TGI [55]: 19.5 µM; TGI [8]: 36.1 µM; TGI [9]: > 59.4 µM; TGI [11]: 33.8 µM; TGI [12]: 34.4 µM; TGI [13]: 13.6 µM; TGI [14]: 41.1 µM; TGI [15]: 55.3 µM; TGI [16]: 32 µM; TGI [17]: > 100 µM; TGI [18]: 31.6 µM; TGI [19]: 30.1 µM; TGI [20]: 33.8 µM; TGI [22]: 24.7 µM; TGI [23]: 26.4 µM; TGI [24]: 37.8 µM; TGI [25]: 32.7 µM; TGI [56]: > 100 µM; TGI [26]: 35.1 µM; TGI [27]: 31.4 µM; TGI [28]: 38.5 µM; TGI [29]: 28.8 µM; TGI [30]: 29.8 µM; TGI [31]: 32.4 µM; TGI [32]: 19.7 µM; TGI [33]: 31.6 µM; TGI [34]: 8.66 µM; TGI [35]: 29.7 µM; TGI [36]: 24.3 µM; TGI [37]: 29.5 µM; TGI [57]: 17.8 µM; TGI [38]: 46.1 µM; TGI [39]: 8.51 µM; TGI [40]: 5.93 µM; TGI [41]: 34.9 µM; TGI [42]: 33.3 µM; TGI [43]: 5.67 µM; TGI [44]: 32.3 µM; TGI [45]: 55.3 µM; TGI [46]: 37.6 µM; TGI [59]: 40.2 µM; TGI [47]: 31.9 µM; TGI [48]: 67.8 µM; TGI [50]: 33.4 µM; TGI [58]: 18 µM; TGI [51]: 70.2 µM; TGI [52]: 18.4 µM; TGI [53]: 25.8 µM
